As a reminder, the MFC is the smallest concentration meeting the test's criterion for killing the fungus.

In assay [1] the test system is C. albicans CA276 (clinical isolate). Kind of assay: microbe, parasite or virus in culture. Format: cell-based, Candida albicans. The note with it: CA276 (clinical isolate, 48 h). The text has this:
(§1) The antifungal activities were monitored in RPMI-1640 broth medium by a 2-fold microdilution assay according to the Clinical and Laboratory Standards Institute (CLSI) methods. The Candida albicans CGMCC 2.2086, Candida tropicalis CGMCC 2.1975, and Candida krusei CGMCC 2.1857 fungal strains were purchased from the China General Microbiological Culture Collection Center (CGMCC, Beijing, China). Clinically isolated Candida albicans CA2761 was provided by the 4th Affiliated Hospital of Harbin Medical University. Briefly, fungal strains were cultured on YPD agar plates (1% peptone, 0.5% yeast extract, 1% glucose and 2% agar) at 28 °C to prepare Candida suspensions with a turbidity of a 0.5 McFarland standard. A total of 50 μl inoculum cell suspension diluted in RPMI-1640 broth medium was added to an equal volume of peptide solution to achieve a final peptide concentrations ranging from 0.25 μM to 128 μM in a 96-well plate. Pure broth alone or with inoculum suspensions was used as the negative control or the positive control, respectively. The plate was incubated at 28 °C for 48 h. MIC was considered the lowest concentration at which no fungal growth was visually observed under experimental conditions. […] After 48 h incubation at 28 °C, MFC was defined as the lowest concentration of peptides that killed at least 99.9% of the initial inoculums. Experiments were performed in triplicate with three biological replicates.

Assay [2] deals with Candida albicans CGMCC 2.2086. The experiment in a line: microbe, parasite or virus in culture. Format: cell-based. The note with it: CGMCC 2.2086, 48 h.
Text: as §1

For assay [3], the system named is Candida tropicalis CGMCC 2.1975. The experiment in a line: microbe, parasite or virus in culture. The assay is classed as cell-based. The following applies: CGMCC 2.1975, 48 h; for MFC: read-out: MFC C. tropicalis 2.1975; for MIC: read-out: MIC C. tropicalis 2.1975.
Text: as §1

The subject of assay [4] is Candida krusei CGMCC 2.1857. The experiment in a line: microbe, parasite or virus in culture. The assay is classed as cell-based. The following applies: CGMCC 2.1857, 48 h.
Text: as §1

Assay [5] concerns Escherichia coli UB1005. The assay is classed as cell-based. The following applies: UB1005, 18 h. The procedure: (§2) The peptide antibacterial activity was determined against both gram-positive and gram-negative bacteria strains, including Escherichia coli ATCC 25922, Escherichia coli UB1005, Salmonella enterica serovar typhimurium C77-31, Staphylococcus aureus ATCC 29213, Staphylococcus aureus ATCC 25923, Bacillus subtilis CMCC 63501, and Staphylococcus epidermidis ATCC 12228. Clinically isolated Escherichia coli EC183 was provided by the 4th Affiliated Hospital of Harbin Medical University. MIC of the peptides was measured using a modified version of the National Committee for Clinical Laboratory Standards (NCCLS) broth microdilution method as described previously. The bacterial strains were inoculated and grown to mid-log phase in fresh Mueller-Hinton broth (MHB) at 37 °C. Bacterial inoculum suspensions were prepared at a final concentration of approximately 1 × 10^5 CFU/ml. Peptides were 2-fold serially diluted to make different concentrations, from 0.5 to 256 μM. Equal volumes of inoculum suspensions were then added to each well of a sterile 96-well plate with different concentrations of peptides, and the plate was incubated for 18 h at 37 °C. Broth with or without bacteria was employed as the positive control or the negative control, respectively. MIC was defined as the lowest concentration of peptides that prevented visible turbidity by visual inspection. […] After overnight incubation at 37 °C, MBC was defined as the lowest concentration of peptides that killed at least 99.9% of the initial inoculums. Experiments were performed in triplicate with three biological replicates.

Assay [6] deals with Bacillus subtilis CMCC 63501. The assay is classed as cell-based. The following applies: CMCC 63501, 18 h. As for the experimental part: as §2
For assay [7], the system named is Staphylococcus epidermidis ATCC 12228. Format: cell-based. The following applies: ATCC 12228, 18 h. The procedure:
as §2

Assay [8] concerns Escherichia coli ATCC 25922. The assay is classed as cell-based. The note with it: ATCC 25922, 18 h. As for the experimental part: as §2
Assay [9] concerns Staphylococcus aureus ATCC 29213. The assay is classed as cell-based. The note with it: ATCC 29213, 18 h. As for the experimental part: as §2
Assay [10] deals with Clinically isolated Escherichia coli EC183. Format: cell-based. The following applies: Clinically isolated EC183, 18 h. As for the experimental part: as §2
Assay [11] deals with Staphylococcus aureus ATCC 25923. Format: cell-based. The following applies: ATCC 25923, 18 h. The procedure:
as §2

For assay [12], the system named is Salmonella enterica serovar typhimurium C77-31. Format: cell-based. The note with it: three independent experiments; for MBC S. typhi C77-31: lowest concentration killing at least 99.9% of initial inoculum. The procedure:
as §2

≈ marks a conversion by molar mass, not a printed value. Marks after values point to notes of the source that are not given here. Peptide text beside a SMILES is read from it.

As to `CC[C@H](C)[C@H](NC(=O)[C@H](CCCCN)NC(=O)[C@H](CCCCN)NC(=O)[C@H](CC(C)C)NC(=O)[C@H](CCCNC(=N)N)NC(=O)[C@H](CCCCN)NC(=O)[C@H](CCCNC(=N)N)NC(=O)[C@@H](NC(=O)[C@H](CCCCN)NC(=O)[C@H](CCCCN)NC(=O)[C@H](CCCNC(=N)N)NC(=O)[C@H](CC(C)C)NC(=O)[C@H](CCCNC(=N)N)NC(=O)[C@H](CCCNC(=N)N)NC(=O)[C@H](Cc1ccccc1)NC(=O)[C@H](CCCNC(=N)N)NC(=O)CN)[C@@H](C)O)C(=O)NCC(=O)N[C@@H](CCCCN)C(=O)N[C@H](C(=O)N[C@@H](CC(C)C)C(=O)N[C@@H](CCCCN)C(=O)N[C@@H](Cc1c[nH]c2ccccc12)C(=O)N[C@H](C(=O)N1CCC[C@H]1C(=O)N1CCC[C@H]1C(=O)N[C@H](C(=O)N[C@H](C(=O)NCC(=O)N[C@@H](CO)C(=O)N[C@H](C(=O)N1CCC[C@H]1C(=O)N[C@@H](CC(C)C)C(=O)NCC(=O)N[C@@H](CS)C(=O)NCC(N)=O)[C@@H](C)CC)C(C)C)[C@@H](C)CC)[C@@H](C)CC)C(C)C` [PMAP-36] (H-GRFRRLRKKTRKRLKKIGKVLKWIPPIVGSIPLGCG-NH2), in assay [1], the MFC C. albicans CA276 worked out at 128 µM (≈ 532 µg/mL) and the MIC C. albicans CA276 was found to be 128 µM (≈ 532 µg/mL). Further, in [2], the MFC C. albicans 2.2086 is 128 µM (≈ 532 µg/mL) and the MIC C. albicans 2.2086 is 128 µM (≈ 532 µg/mL). For the same molecule, in assay [3], the minimum fungicidal concentration (MFC) was found to be 2 µM (≈ 8.31 µg/mL) and the MIC came out at 1 µM (≈ 4.16 µg/mL). Also, in assay [4], the MFC C. krusei 2.1857 stood at 8 µM (≈ 33.3 µg/mL) and the MIC C. krusei 2.1857 stood at 8 µM (≈ 33.3 µg/mL). For the same molecule, in [5], the “MBC E. coli 1005” value was 2 ^c (2) μM. In assay [6], the “MBC B. subtilis 63501” value is recorded as 1 (1) μM and the “MIC B. subtilis 63501” value is on record as 1 (1) μM. Moreover, the “MBC S. epidermidis 12228” value in assay [7] turned out to be 4 µM (≈ 16.6 µg/mL). Also, the “MBC E. coli 25922” value in [8] came out at 4 µM (≈ 16.6 µg/mL). The “MBC S. aureus 29213” value in assay [9] is 4 µM (≈ 16.6 µg/mL). In [10], this molecule returned an MBC E. coli EC183 of 1 µM (≈ 4.16 µg/mL) and an MIC E. coli EC183 of 1 µM (≈ 4.16 µg/mL). Besides, in assay [11], the “MBC S. aureus 25923” value turned out to be 4 µM (≈ 16.6 µg/mL). Moreover, the “MBC S. typhi C77-31” value in [12] stood at 2 µM (≈ 8.31 µg/mL).
In [1], `CC[C@H](C)[C@H](NC(=O)[C@H](Cc1c[nH]c2ccccc12)NC(=O)[C@H](CCCCN)NC(=O)[C@H](CC(C)C)NC(=O)[C@@H](NC(=O)[C@H](CCCCN)NC(=O)CNC(=O)[C@@H](NC(=O)[C@H](CCCCN)NC(=O)[C@H](CCCCN)NC(=O)[C@H](CC(C)C)NC(=O)[C@@H](N)CCCNC(=N)N)[C@@H](C)CC)C(C)C)C(N)=O` [RI12] (H-RLKKIGKVLKWI-NH2) displayed an MFC C. albicans CA276 of 128 µM (≈ 190 µg/mL) and an MIC C. albicans CA276 of 128 µM (≈ 190 µg/mL). In [2], this molecule displayed an MFC C. albicans 2.2086 of 128 µM (≈ 190 µg/mL) and an MIC C. albicans 2.2086 of 128 µM (≈ 190 µg/mL). Further, in assay [3], the MFC C. tropicalis 2.1975 worked out at 8 µM (≈ 11.8 µg/mL) and the MIC C. tropicalis 2.1975 turned out to be 8 µM (≈ 11.8 µg/mL). In [4], this molecule showed an MFC C. krusei 2.1857 of 16 µM (≈ 23.7 µg/mL) and an MIC C. krusei 2.1857 of 16 µM (≈ 23.7 µg/mL). In [5], the “MBC E. coli 1005” value stood at 32 µM (≈ 47.4 µg/mL). Further, in [6], the “MBC B. subtilis 63501” value turned out to be 8 µM (≈ 11.8 µg/mL) and the “MIC B. subtilis 63501” value amounted to 2 µM (≈ 2.96 µg/mL). In assay [7], the “MBC S. epidermidis 12228” value was 64^c (64) μM. The “MBC E. coli 25922” value in assay [8] turned out to be 32 µM (≈ 47.4 µg/mL). The “MBC S. aureus 29213” value in [9] is 128 µM (≈ 190 µg/mL). In assay [10], the “MBC E. coli EC183” value amounted to 4 µM (≈ 5.92 µg/mL) and the “MIC E. coli EC183” value was 2 µM (≈ 2.96 µg/mL). In addition, the “MBC S. aureus 25923” value in assay [11] is listed as 128^c (128) μM. For the same molecule, the “MBC S. typhi C77-31” value in assay [12] is 32 µM (≈ 47.4 µg/mL).
Consider `CC[C@H](C)[C@H](NC(=O)[C@H](Cc1c[nH]c2ccccc12)NC(=O)[C@H](CCCCN)NC(=O)[C@H](CC(C)C)NC(=O)[C@@H](NC(=O)[C@H](CCCCN)NC(=O)CNC(=O)[C@@H](NC(=O)[C@H](CCCCN)NC(=O)[C@H](CCCCN)NC(=O)[C@H](CC(C)C)NC(=O)[C@H](CCCNC(=N)N)NC(=O)[C@H](CCCCN)NC(=O)[C@H](CCCNC(=N)N)NC(=O)[C@@H](NC(=O)[C@H](CCCCN)NC(=O)[C@H](CCCCN)NC(=O)[C@@H](N)CCCNC(=N)N)[C@@H](C)O)[C@@H](C)CC)C(C)C)C(N)=O` [RI18] (H-RKKTRKRLKKIGKVLKWI-NH2), for which, in assay [1], the MFC stood at 16 µM (≈ 36.5 µg/mL) and the MIC came out at 8 µM (≈ 18.2 µg/mL). Also, in assay [2] (read-out: MFC C. albicans 2.2086), the MFC is 32 µM (≈ 72.9 µg/mL). In addition, the MIC in [2] (read-out: MIC C. albicans 2.2086) is reported as 16 µM (≈ 36.5 µg/mL). In assay [3], the MFC amounted to 4 µM (≈ 9.12 µg/mL) and the MIC is 2 µM (≈ 4.56 µg/mL). The MFC in assay [4] (read-out: MFC C. krusei 2.1857) is reported as 8 µM (≈ 18.2 µg/mL). Also, the MIC in assay [4] (read-out: MIC C. krusei 2.1857) is 4 µM (≈ 9.12 µg/mL). In assay [5], the “MBC E. coli 1005” value came to 4 µM (≈ 9.12 µg/mL) and the “MIC E. coli 1005” value was 2 µM (≈ 4.56 µg/mL). Moreover, in assay [6], the “MBC B. subtilis 63501” value was found to be 2 µM (≈ 4.56 µg/mL) and the “MIC B. subtilis 63501” value amounted to 1 µM (≈ 2.28 µg/mL). In [7], the “MBC S. epidermidis 12228” value was determined as 16 µM (≈ 36.5 µg/mL) and the “MIC S. epidermidis 12228” value was determined as 4 µM (≈ 9.12 µg/mL). Further, in [8], the “MBC E. coli 25922” value was determined as 4 µM (≈ 9.12 µg/mL) and the “MIC E. coli 25922” value came to 2 µM (≈ 4.56 µg/mL). Moreover, in [9], the MBC S. aureus 29213 turned out to be 4 µM (≈ 9.12 µg/mL) and the MIC S. aureus 29213 was 4 µM (≈ 9.12 µg/mL). In [10], the “MBC E. coli EC183” value was determined as 2 µM (≈ 4.56 µg/mL) and the “MIC E. coli EC183” value was 1 µM (≈ 2.28 µg/mL). In [11], this molecule had an MBC S. aureus 25923 of 8 µM (≈ 18.2 µg/mL) and an MIC S. aureus 25923 of 8 µM (≈ 18.2 µg/mL). Moreover, in assay [12] (broth microdilution, MHB, ~1 × 10^5 CFU/ml, 18 h at 37 °C, visual), the “MIC S. typhi C77-31” value turned out to be 2 µM (≈ 4.56 µg/mL). Further, in assay [12], the “MBC S. typhi C77-31” value worked out at 4 µM (≈ 9.12 µg/mL).
